Measurements from ChEMBL document CHEMBL3039007, “Structure-based identification of OATP1B1/3 inhibitors” (Mol Pharmacol, 2013).
Residues, ends and D or L forms follow the SMILES beside them.

Legend:
[1] = target: T1, Solute carrier organic anion transporter family member 1B1 (Homo sapiens, UniProt Q9Y6L6); settings: chinese hamster, cho, 10 µM
T1 sequence (Q9Y6L6 whole entry): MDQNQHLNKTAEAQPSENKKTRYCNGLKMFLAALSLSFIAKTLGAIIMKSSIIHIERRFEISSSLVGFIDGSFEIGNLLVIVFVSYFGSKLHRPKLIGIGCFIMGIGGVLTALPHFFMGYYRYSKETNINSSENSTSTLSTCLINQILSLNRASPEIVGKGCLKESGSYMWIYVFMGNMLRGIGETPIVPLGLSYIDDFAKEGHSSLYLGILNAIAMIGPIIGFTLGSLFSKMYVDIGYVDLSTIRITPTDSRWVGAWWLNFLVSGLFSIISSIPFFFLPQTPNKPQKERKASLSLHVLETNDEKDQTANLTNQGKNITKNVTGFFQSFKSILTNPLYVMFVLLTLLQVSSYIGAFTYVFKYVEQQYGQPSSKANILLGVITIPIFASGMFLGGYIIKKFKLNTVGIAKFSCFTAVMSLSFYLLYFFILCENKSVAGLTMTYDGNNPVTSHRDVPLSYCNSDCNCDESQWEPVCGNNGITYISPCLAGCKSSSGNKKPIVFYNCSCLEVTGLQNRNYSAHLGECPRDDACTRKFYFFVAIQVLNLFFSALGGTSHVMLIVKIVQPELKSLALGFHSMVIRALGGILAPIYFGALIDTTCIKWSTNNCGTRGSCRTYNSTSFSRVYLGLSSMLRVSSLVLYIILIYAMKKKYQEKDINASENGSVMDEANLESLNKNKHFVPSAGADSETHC

[2] = target: T2, Solute carrier organic anion transporter family member 1B3 (Homo sapiens, UniProt Q9NPD5); settings: chinese hamster, cho, 10 µM
T2 sequence (Q9NPD5 whole entry): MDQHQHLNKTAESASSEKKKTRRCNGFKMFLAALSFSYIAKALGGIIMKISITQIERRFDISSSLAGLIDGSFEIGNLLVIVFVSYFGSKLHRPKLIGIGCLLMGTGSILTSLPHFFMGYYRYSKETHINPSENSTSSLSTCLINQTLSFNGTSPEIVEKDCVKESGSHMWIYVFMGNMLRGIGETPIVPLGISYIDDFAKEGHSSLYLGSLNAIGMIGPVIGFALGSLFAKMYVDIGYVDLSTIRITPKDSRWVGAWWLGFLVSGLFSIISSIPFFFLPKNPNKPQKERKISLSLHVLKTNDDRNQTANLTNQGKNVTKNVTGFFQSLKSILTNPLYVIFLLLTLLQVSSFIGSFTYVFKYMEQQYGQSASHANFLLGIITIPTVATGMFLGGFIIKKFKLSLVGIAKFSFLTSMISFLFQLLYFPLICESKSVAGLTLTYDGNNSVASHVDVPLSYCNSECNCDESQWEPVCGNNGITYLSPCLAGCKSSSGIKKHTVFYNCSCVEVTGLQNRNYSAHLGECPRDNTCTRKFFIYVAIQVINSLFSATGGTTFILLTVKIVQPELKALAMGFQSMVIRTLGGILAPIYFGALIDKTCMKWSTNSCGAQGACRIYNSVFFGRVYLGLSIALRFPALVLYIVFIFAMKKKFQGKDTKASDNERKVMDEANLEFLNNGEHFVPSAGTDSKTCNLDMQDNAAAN

Row | SMILES | residual activity [1] | residual activity [2]
1 | O=C(O)CN(CC(=O)O)Cc1cc2c(cc1O)Oc1cc(O)c(CN(CC(=O)O)CC(=O)O)cc1C21OC(=O)c2ccccc21 [OFTASCEINE] | 105.6% | 121.3%
2 | C[C@]12CC[C@H](O)C[C@@H]1CC[C@@H]1[C@@H]2CC[C@]2(C)C(=O)CC[C@@H]12 [EPIANDROSTERONE] | 55.38% | 91.34%
3 | Cc1cc(O)cc(O)c1C(=O)O [ORSELLINIC ACID] | 66.07% | 86.96%
4 | CN(C)CCc1c[nH]c2ccc(C[C@H]3COC(=O)N3)cc12 [ZOLMITRIPTAN] | 95.98% | 102.5%
5 | O=c1ccc2ccc(O)c(O)c2o1 [DAPHNETIN] | 66.34% | 94.36%
6 | CNCCC(Oc1ccc(C(F)(F)F)cc1)c1ccccc1 (stereo not given) [FLUOXETINE] | 55.32% | 77.22%
7 | CC1(C)O[C@@H]2C[C@H]3[C@@H]4CCC5=CC(=O)C=C[C@]5(C)[C@@]4(F)[C@@H](O)C[C@]3(C)[C@]2(C(=O)CO)O1 [TRIAMCINOLONE ACETONIDE] | 128.1% | 115.5%
8 | COC(=O)[C@]1(C)CC[C@]2(C)CC[C@]3(C)C4=CCc5c(cc(O)c(O)c5C)[C@]4(C)CC[C@@]3(C)[C@@H]2C1 [PRISTIMEROL] | 70.1% | 86.64%
9 | COc1cc2occc2c2oc(=O)ccc12 [ISOBERGAPTENE] | 127.3% | 113.9%
10 | CC1(C)C2CC(=O)O[C@@]3(C)C4=CC(=O)O[C@@H](c5ccoc5)[C@]4(C)CCC3[C@@]2(C)C=C[C@H]1O (stereo not given in full) [DEOXYANDIROBIN LACTONE] | 29.53% | 53.06%
11 | CCC(=O)c1c(O)cc(O)cc1O [FLOPROPIONE] | 69.54% | 107.4%
12 | COc1cc(O)c(C(=O)/C=C/c2ccccc2)c(OC)c1 [FLAVOKAWAIN B] | 141.4% | 125.2%
13 | CCCCC1=NC2(CCCC2)C(=O)N1Cc1ccc(-c2ccccc2-c2nnn[nH]2)cc1 [IRBESARTAN] | 76.05% | 47.18%
14 | CC(=O)O[C@H]1CC[C@@]2(C)[C@H](CC[C@@H]3[C@@H]2CC[C@]2(C)[C@@H]4[C@H](C[C@@H]32)O[C@]2(CC[C@@H](C)CO2)[C@H]4C)C1 | 103.6% | 92.75%
15 | COc1cc(OC)c2c(=O)c(-c3ccc4c(c3)OCO4)coc2c1 [DERRUSTONE] | 132.5% | 94.69%
16 | NCCCC[C@H](N)C(=O)N[C@@H](Cc1ccccc1)C(=O)N[C@@H](Cc1ccc(O)cc1)C(=O)O [LYSYLPHENYLALANYLTYROSINE] (H-Lys-Phe-Tyr-OH) | 100.8% | 112.2%
17 | COc1ccc(OC)c(C(O)CNC(=O)CN)c1.Cl (stereo not given) [MIDODRINE HYDROCHLORIDE] | 101.7% | 88.99%
18 | COc1cc([C@@H]2c3cc4c(cc3[C@@H](O[C@@H]3O[C@@H]5CO[C@@H](c6cccs6)O[C@H]5[C@H](O)[C@H]3O)[C@H]3COC(=O)[C@H]23)OCO4)cc(OC)c1O [TENIPOSIDE] | 25.44% | 32.58%
19 | C=C1C2CC[C@H]3[C@]4(C)C[C@H](O[C@H]5O[C@H](CO)[C@@H](OS(=O)(=O)[O-])[C@H](OS(=O)(=O)[O-])[C@H]5OC(=O)CC(C)C)C[C@@H](C(=O)O)[C@H]4CC[C@]3(C2)[C@H]1O.[K+].[K+] | 100% | 92.24%
20 | C[C@H]1COc2c(N3CCN(C)CC3)c(F)cc3c(=O)c(C(=O)O)cn1c23.C[C@H]1COc2c(N3CCN(C)CC3)c(F)cc3c(=O)c(C(=O)O)cn1c23.O [LEVOFLOXACIN] | 117.4% | 95.07%
21 | COc1cc2cc3c4cc(OC)c(OC)cc4cc[n+]3c(C)c2cc1OC.[Cl-] [CORALYNE] | 106.5% | 150.5%
22 | COc1c(O)cc2oc3cc(O)c(CC=C(C)C)c(O)c3c(=O)c2c1CC=C(C)C [MANGOSTIN] | 150.2% | 110.4%
23 | CC(C)CCC[C@@H](C)[C@H]1CC[C@H]2[C@@H]3C(=O)C=C4C[C@@H](O)CC[C@]4(C)[C@H]3CC[C@]12C [7-OXOCHOLESTEROL] | 96.87% | 90.78%

Row | SMILES | residual activity [1] | residual activity [2]
24 | N=C(N)NCCCCN.O=S(=O)(O)O [AGMATINE SULFATE] | 111.9% | 110%
25 | C[C@H](N)[C@H](O)c1ccccc1 [(1R,2S)-PHENYLPROPANOLAMINE] | 97.41% | 87%
26 | CC1(C)[C@H](O)C[C@H](O)[C@@]2(C)[C@H]3CC[C@]4(C)[C@@H](c5ccoc5)OC(=O)[C@H]5O[C@]54[C@]3(C)[C@H](O)C[C@@H]12 | 48% | 84.19%
27 | CO/N=C(\C(=O)N[C@@H]1C(=O)N2C(C(=O)[O-])=C(COC(C)=O)CS[C@H]12)c1csc(N)n1.[Na+] [CEFOTAXIME SODIUM] | 104.1% | 119.2%
28 | Oc1cc(O)c2c(c1)O[C@H](c1cc(O)c(O)c(O)c1)[C@H](O)[C@H]2c1c(O)cc(O)c2c1O[C@H](c1cc(O)c(O)c(O)c1)[C@H](O)[C@H]2c1c(O)cc(O)c2c1O[C@H](c1cc(O)c(O)c(O)c1)[C@H](O)C2 [KATACINE] | 133.4% | 99.79%
29 | CC(=O)OCC(CCn1cnc2cnc(N)nc21)COC(C)=O [FAMCICLOVIR] | 68.22% | 68.05%
30 | Oc1cc(O)c2c(c1)O[C@H](c1ccc(O)c(O)c1)[C@@H](O)C2 [CIANIDANOL] | 72.87% | 92.34%
31 | CS(=O)(=O)CCCCN=C=S [ERYSOLIN] | 108.6% | 72.62%
32 | Cc1ccc(-c2nc3ccc(C)cn3c2CC(=O)N(C)C)cc1 [ZOLPIDEM] | 177.4% | 78.05%
33 | NC(N)=O [UREA] | 87.46% | 105.9%
34 | COc1ccc(C(Cl)=C(c2ccc(OC)cc2)c2ccc(OC)cc2)cc1 [CHLOROTRIANISENE] | 91.3% | 92.54%
35 | C=C(C)[C@@H]1CC=C(CO)CC1 [PERILLYL ALCOHOL] | 84.39% | 91.29%
36 | COc1ccc(C(=O)c2ccccc2)c(O)c1 [OXYBENZONE] | 225.4% | 128.4%
37 | O=c1cc(CO)occ1O [KOJIC ACID] | 79.88% | 80.38%
38 | CCn1cc(C(=O)O)c(=O)c2cc(F)c(N3CCNCC3)cc21 [NORFLOXACIN] | 97.94% | 99.94%
39 | CCOP(=S)(OCC)Oc1nc(Cl)c(Cl)cc1Cl [CHLORPYRIFOS] | 140% | 127.1%
40 | COc1ccc(C(=O)O)cc1OC [VERATRIC ACID] | 111.3% | 106.9%
41 | CCN(CC)C(=O)N1CCN(C)CC1.O=C(O)CC(O)(CC(=O)O)C(=O)O [DIETHYLCARBAMAZINE CITRATE] | 95.54% | 81.28%
42 | COc1ccc(-c2coc3c(OC)c(OC)cc(OC)c3c2=O)cc1 [ISOTECTORIGENIN TRIMETHYL ETHER] | 133.5% | 118.2%
43 | CNC(=O)Oc1ccc2c(c1)[C@]1(C)CCN(C)[C@@H]1N2C.CNC(=O)Oc1ccc2c(c1)[C@]1(C)CCN(C)[C@@H]1N2C.O=S(=O)(O)O [PHYSOSTIGMINE SULFATE] | 101.7% | 99.93%
44 | CC(C)c1ccc2c(c1)CC[C@H]1[C@](C)(C(N)=O)CCC[C@]21C [DEHYDROABIETAMIDE] | 81.19% | 106.2%
45 | CCOC(=O)C1C(C=C(C)C)C1(C)C (stereo not given) [CHRYSANTHEMIC ACID, ETHYL ESTER] | 83.17% | 89.36%
